Where two headings read alike, the source gives them in different places. Where a SMILES comes first, the peptide text is derived from it. Bridges are numbered along the chain shown (N, C = ends). [ ]: non-standard residue; d: D form. Dap = NC[C@H](N)C(=O)O
Columns and labels:
[1] = tested on: type A cholecystokinin receptor; assay: Intracellular calcium response in myenteric neurones (confocal microscopy); format: cell-based; details: perfusion for 60 seconds
Text: Biological tests have been carried out to confirm the activity of the cyclic compound of formula (IV), using neurone cells which express type A cholecystokinin receptor. […] Both these compounds should show a lower level of activity than the corresponding analogs containing the sulphate group on the tyrosine residue. The biological activity tests involved the use of myenteric neurones as receptor-expressing cells, and the use of a confocal microscope with a suitable software package to measure peptide activity. The tests were based on the following assumptions: • 1) myenteric neurones (of the intestinal wall) normally express type A CCK receptor • 2) binding between CCK and the receptor induces excitation of the cell (change in membrane potential), which can be recorded with electrophysiology studies • 3) the cell excitation is coupled to the passage of calcium from the outside to the inside of the cell through specific membrane channels • 4) if the calcium is rendered fluorescent (using calcium chelators which modify the emission wavelength if they are excited at a particular wavelength), the increased concentration of the intracellular calcium in response to a stimulus can be recorded • 5) confocal laser microscopy with the aid of specific software therefore enables these phenomena to be recorded, and the fluorescence to be converted into the intracellular calcium concentration.

[2] = target: T1, fragment 1-47 of type A cholecystokinin receptor, CCKA-R(1-47) (Homo sapiens, UniProt P32238); assay: Fluorescence spectroscopy binding to receptor fragment CCKA-R(1-47)
T1 construct: Fragment 1-47 of type A receptor, CCKA-R(1-47), and the compound of formula (IV), both synthesised by solid-phase peptide synthesis methods, were used; made in house; host or cells: chemical solid-phase peptide synthesis (no expression host)
T1 sequence (P32238 1-47): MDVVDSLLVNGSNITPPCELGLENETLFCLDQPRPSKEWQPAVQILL
Text: The binding between the compound prepared as described in example 1 and fragment 1-47 of type A cholecystokinin receptor was studied with fluorescence spectroscopy. Although the compound of formula (IV), as it has no sulphate functions on the tyrosine residue, should have greater affinity for type B cholecystokinin receptor, the experiment performed and the results obtained are entirely legitimate, because the receptor fragment used contains no residues (Arg 197) which are known to be responsible for interaction with the sulphate group.
Fragment 1-47 of type A receptor, CCKA-R(1-47), and the compound of formula (IV), both synthesised by solid-phase peptide synthesis methods, were used. Reference should be made to example 1 for the synthesis of compound (IV); for the synthesis of the receptor fragment, see R. Ragone, 47-53, 56, 2001, Biopolymers).
The interaction between receptor fragment CCKA-R(1-47) and compound (IV) was observed by monitoring the tryptophan fluorescence. The emission spectra were recorded at room temperature using a Jasco FP-750 spectrofluorimeter at the excitation wavelength of 296 nm to excite the tryptophan selectively. Small aliquots of a concentrated solution of compound (IV) dissolved in phosphate buffer at pH 7.2 were added to a fixed volume of a solution of CCKA-R(1-47) dissolved in the same solvent, in the presence of a 10 mM solution of sodium dodecylsulphate micelles, used to mimic the cell membrane. […]
Increasing quantities of compound of formula (IV) were added from a concentrated master solution containing 10 mM SDS micelles.
As will be seen in FIG. 2, which exemplifies a typical saturation curve, the fluorescence signal is gradually quenched as a result of the binding. The experiments were performed at various receptor concentrations, and fluorescence quenching was always observed. […] To distinguish the modifications in fluorescence caused by the binding, the contributions to fluorescence of the receptor and peptide isolated were subtracted, and a small variation in fluorescence compared with the value measured was obtained.

Kd ([2]; experiments at various receptor concentrations, read-out: Kd range estimated by fitting procedures) [nM] | Kd ([2]; experiments at various receptor concentrations, standard deviation ±27 nM, read-out: Kd mean) [nM] | Kd ([2]; receptor concentration 2.6 μM, 10 mM phosphate buffer pH 7.2, 10 mM SDS micelles, fluorescence at 335 nm, read-out: Kd (binding curve of FIG. 2)) [nM] | Compound | intracellular calcium concentration [1]
 |  |  | Asp-Tyr-Met-Gly-Trp-Met-Asp-Phe-amide [CCK8] | induce an increase in the intracellular calcium concentration
50 to 200 | 120 | 255 | CSCC[C@@H]1NC(=O)[C@H](Cc2c[nH]c3ccccc23)NC(=O)[C@@H](NC(=O)[C@H](CCSC)NC(=O)[C@H](Cc2ccc(O)cc2)NC(=O)[C@@H](N)CC(=O)O)CNC(=O)[C@H](CCCCN)NC(=O)[C@H](Cc2ccccc2)NC(=O)[C@H](CC(=O)O)NC1=O [(IV)] (H-DYM[Dap]WMDFK; lactam 4-C) | 

Source: patent publication US7329644B2, “Preparation and use of cyclic and branched peptides and their labelled derivatives as therapeutic agents, cholecystokinin agonists or antagonists, and diagnostic agents to identify and locate tumours” (Bracco Imaging S.p.A., priority 2001, dated 2008)
